Test results published in US9873693B2 (Sunesis Pharmaceuticals, Inc., priority 2006, dated 2018).
Where two headings read alike, the source gives them in different places.

How the values were obtained:
[1] = tested on: phospho-akt (Thr308); test: phospho-akt (Thr308) MSD ELISA in PC-3 cells; type: cell-based; conditions: Homo sapiens; for EC50: PC-3, 2 h; for inhibition at 1 µM / inhibition at 10 µM: read-out: Percent Inhibition of phospho-Akt (308) By MSD ELISA
Experimental: PC-3 cells were harvested by trypsin and counted. Cells were plated in coated 96-well flat bottom plates (plate 15,000 cells/well in 100 ul growth media (10% FBS, 1× pen-strep) an place in an incubator overnight.
Subject inhibitors were stocked at 50 mM, then diluted to 30 mM (4.8 μl cpd plus […] DMSO) in 100% DMSO. Three-fold dilutions were performed from 30 mM stock. (4 μl into 8 ul 100% DMSO). Aliquots of 1.0 μl of inhibitor solution were transferred into SF Medium (using deep well block).
Control wells were prepared as follows. For DMSO high controls, 1.0 μl of 100% DMSO was added into 1.0 ml SF.
MSD plates were blocked for 1 hour by adding 150 μl of Blocking Solution (3% BSA) to each well. The MSD plates were washed 4× with TBST, and 50 μl lysates were transferred to MSD plate and place on plate shaker shake at 4 degrees O/N, light shaking (speed 3.5). The plate was washed 4× with TBST.
25 μl of Ab detection solution was added to each well. The plate was sealed and incubated 1 hr RT, light shaking (speed 3.5). The plate was washed 4 times with TBST. 150 μl of Read Buffer was added (5 mls 4×MSD Read Buffer+15 mls water). Finally the plate was read immediately on the MSD plate reader.

[2] = target: phosphorylated PDK1 (Homo sapiens (Human), UniProt O15530); test: PDK1 kinase assay (coupled PDK1/AKT/FAM-crosstide, IMAP); type: biochemical; conditions: 0.5 nM phosphorylated PDK1, 24 μM ATP; read-out: Inhibition of phospo-PDK1 in vitro IC50
[3] = PC-3 cells, 2 hours, no serum, read-out: Inhibition of P308 Akt in cells using MSD EC50
[4] = PC-3 cells, 2 hours, no serum, read-out: Reduction of Cellular Levels of Akt p308 By MSD ELISA (EC50 μM)
[5] = read-out: Inhibition of P308 Akt in cells using MSD EC50
[6] = read-out: Reduction of Cellular Levels of Akt p308 By MSD ELISA (EC50 μM)

phosphorylated PDK1, sequence (O15530 51-360): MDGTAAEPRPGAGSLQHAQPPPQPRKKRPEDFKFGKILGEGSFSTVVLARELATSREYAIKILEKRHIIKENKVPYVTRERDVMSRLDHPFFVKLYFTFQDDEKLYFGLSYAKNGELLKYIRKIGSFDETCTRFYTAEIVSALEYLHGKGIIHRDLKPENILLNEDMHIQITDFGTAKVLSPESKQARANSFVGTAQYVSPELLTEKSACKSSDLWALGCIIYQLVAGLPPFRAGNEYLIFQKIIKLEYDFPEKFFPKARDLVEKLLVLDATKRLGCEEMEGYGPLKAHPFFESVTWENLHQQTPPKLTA

Row | Structure (SMILES) | EC50 [1, 3] [µM] | IC50 [2] [µM] | EC50 [1, 4] [µM] | inhibition at 1 µM ([1]; PC-3 cells) [%] | inhibition at 10 µM ([1]; PC-3 cells) [%] | EC50 [1, 5] [µM] | EC50 [1, 6] [µM]
1 | O=C(NCc1cc(OCCN2CCOCC2)cc(-c2c[nH]c3ncccc23)c1)c1cccn(Cc2ccc(F)c(F)c2)c1=O [Cpd 56] | 1 to 5 | < 0.5 | – | – | – | – | –
2 | CN(C)C(=O)c1cnc2[nH]cc(-c3cccc(CNC(=O)c4cccn(Cc5ccc(F)c(F)c5)c4=O)c3)c2c1 [Cpd 27] | < 1 | < 0.5 | < 1 | – | – | – | –
3 | O=C(N[C@H](CO)c1nnc(-c2c[nH]c3ncccc23)o1)c1cccn(Cc2ccc(F)c(F)c2)c1=O [Cpd 284] | 1 to 5 | < 0.5 | 1 to 5 | – | – | – | –
4 | O=C(NCc1cccc(-c2c[nH]c3ncc(-c4ccncc4)cc23)c1)c1cccn(Cc2ccc(F)c(F)c2)c1=O [Cpd 48] | < 1 | < 0.5 | – | – | – | – | –
5 | O=C1Nc2cc(/C=C/CNC(=O)c3cccn(Cc4cc(F)c(F)c(F)c4)c3=O)ccc2/C1=C\c1nccs1 [Cpd 202] | 1 to 5 | < 0.5 | – | – | – | – | –
6 | O=C(N[C@@H](COc1ccc2[nH]c(=O)[nH]c2c1F)c1ccccc1)c1cccn(Cc2cc(F)c(F)c(F)c2)c1=O [Cpd 177] | < 1 | < 0.5 | – | – | – | – | –
7 | O=C1CCc2c(ncnc2-c2cccc(CNC(=O)c3cccn(Cc4ccc(F)c(F)c4)c3=O)c2)N1 [Cpd 240] | – | > 10 | 1 to 5 | < 25 | < 25 | – | –
8 | Nc1ncccc1-c1ccc(CNC(=O)c2cccn(Cc3ccc(F)c(F)c3)c2=O)s1 [Cpd 97] | 1 to 5 | < 0.5 | – | – | – | – | –
9 | CN(C)C(=O)c1cc(-c2c[nH]c3ncccc23)cc(CNC(=O)c2cccn(Cc3ccc(F)c(F)c3)c2=O)n1 [Cpd 181] | 1 to 5 | < 0.5 | – | – | – | – | –
10 | O=C(NCc1ccnc(-c2c[nH]c3ncccc23)c1)c1cccn(Cc2ccc(F)c(F)c2)c1=O [Cpd 285] | 1 to 5 | < 0.5 | 1 to 5 | – | – | – | –
11 | O=C(NCc1ccc(-c2ccc3cn[nH]c3c2)s1)c1cccn(Cc2ccc(F)c(F)c2)c1=O [Cpd 59] | 1 to 5 | < 0.5 | – | – | – | – | –
12 | CCCNC(=O)C[C@@H](NC(=O)c1cccn(Cc2ccc(F)c(F)c2)c1=O)c1ccc(-c2c[nH]c3ncccc23)s1 [Cpd 32] | – | < 0.5 | – | – | – | 1 to 5 | 1 to 5
13 | COC(=O)[C@H](COc1ccc2[nH]c(=O)[nH]c2c1)NC(=O)c1cccn(Cc2cc(F)c(F)c(F)c2)c1=O [Cpd 153] | < 1 | < 0.5 | – | – | – | – | –
14 | COCCNC(=O)c1cnc2[nH]cc(-c3cccc(CNC(=O)c4cccn(Cc5ccc(F)c(F)c5)c4=O)c3)c2c1 [Cpd 30] | < 1 | < 0.5 | < 1 | – | – | – | –
15 | CC(C)Oc1cc(CNC(=O)c2cccn(Cc3ccc(F)c(F)c3)c2=O)cc(-c2c[nH]c3ncccc23)c1 [Cpd 25] | – | < 0.5 | – | – | – | < 1 | < 1
16 | CNC(=O)c1cnc2[nH]cc(-c3ccc(CNC(=O)c4cccn(Cc5ccc(F)c(F)c5)c4=O)s3)c2c1 [Cpd 40] | 1 to 5 | < 0.5 | 1 to 5 | – | – | – | –
17 | O=C(O)c1cnc2[nH]cc(-c3cccc(CNC(=O)c4cccn(Cc5ccc(F)c(F)c5)c4=O)c3)c2c1 [Cpd 20] | – | < 0.5 | > 5 | – | – | – | –
18 | O=C(NCc1noc(-c2c[nH]c3ncccc23)n1)c1cc([N+](=O)[O-])cn(Cc2cc(F)c(F)c(F)c2)c1=O [Cpd 184] | 1 to 5 | < 0.5 | – | – | – | – | –
19 | O=C(NCc1nccc(-c2c[nH]c3ncccc23)n1)c1cccn(Cc2ccc(F)c(F)c2)c1=O [Cpd 146] | > 5 | < 0.5 | 1 to 5 | – | – | – | –
20 | O=C1Nc2cc(/C=C/CNC(=O)c3cccn(Cc4ccc(F)c(F)c4)c3=O)ccc2/C1=C/c1ncc[nH]1 [Cpd 199] | < 1 | < 0.5 | – | – | – | – | –
21 | CCCNC(=O)c1cnc2[nH]cc(-c3cccc(CNC(=O)c4cccn(Cc5ccc(F)c(F)c5)c4=O)c3)c2c1 [Cpd 29] | < 1 | < 0.5 | < 1 | – | – | – | –

Row | Structure (SMILES) | EC50 [1, 3] [µM] | IC50 [2] [µM] | EC50 [1, 4] [µM] | inhibition at 1 µM ([1]; PC-3 cells) [%] | inhibition at 10 µM ([1]; PC-3 cells) [%] | EC50 [1, 5] [µM] | EC50 [1, 6] [µM]
22 | O=C(NCc1cc(O)cc(-c2c[nH]c3ncccc23)c1)c1cccn(Cc2ccc(F)c(F)c2)c1=O [Cpd 49] | 1 to 5 | < 0.5 | – | – | – | – | –
23 | O=C(Nc1n[nH]c2ccc(-c3c[nH]c4ncccc34)cc12)c1cccn(Cc2ccc(F)c(F)c2)c1=O [Cpd 245] | 1 to 5 | < 0.5 | – | – | – | – | –
24 | O=C1Nc2cc(/C=C/CNC(=O)c3cccn(Cc4ccc(F)c(F)c4)c3=O)ccc2/C1=C\c1cccnc1 [Cpd 200] | 1 to 5 | < 0.5 | – | – | – | – | –
25 | O=C(C[C@@H](NC(=O)c1cccn(Cc2ccc(F)c(F)c2)c1=O)c1ccc(-c2c[nH]c3ncccc23)s1)NC1CC1 [Cpd 33] | 1 to 5 | < 0.5 | 1 to 5 | – | – | – | –
26 | CC(C)=C1C(=O)Nc2cc(/C=C/CNC(=O)c3cccn(Cc4cc(F)c(F)c(F)c4)c3=O)ccc21 [Cpd 204] | 1 to 5 | < 0.5 | – | – | – | – | –
27 | CCNC(=O)c1cnc2[nH]cc(-c3cccc(CNC(=O)c4cccn(Cc5ccc(F)c(F)c5)c4=O)c3)c2c1 [Cpd 28] | < 1 | < 0.5 | < 1 | – | – | – | –
28 | CC(C)/C=C1/C(=O)Nc2cc(/C=C/CNC(=O)c3cccn(Cc4cc(F)c(F)c(F)c4)c3=O)ccc21 [Cpd 205] | > 5 | < 0.5 | – | – | – | – | –
29 | O=C(NCc1noc(-c2c[nH]c3ncccc23)n1)c1cccn(Cc2ccc(Cl)c(Cl)c2)c1=O [Cpd 312] | 1 to 5 | < 0.5 | – | 25 to 75 | > 75 | – | –
30 | CNC(=O)c1cc(-c2c[nH]c3ncccc23)cc(CNC(=O)c2cccn(Cc3ccc(F)c(F)c3)c2=O)n1 [Cpd 180] | < 1 | < 0.5 | – | – | – | – | –
31 | O=C(NCc1ccc(-c2c[nH]c3nccc(Cl)c23)s1)c1cccn(Cc2ccc(F)c(F)c2)c1=O [Cpd 55] | 1 to 5 | < 0.5 | – | – | – | – | –
32 | O=C(N[C@@H](/C=C/c1ccc2[nH]c(=O)[nH]c2c1)c1ccccc1)c1cccn(Cc2cc(F)c(F)c(F)c2)c1=O [Cpd 183] | – | < 0.5 | – | – | – | 1 to 5 | –
33 | O=C(NCc1cccc(-c2c[nH]c3ncccc23)c1)c1cccn(Cc2ccc(Cl)c(Cl)c2)c1=O [Cpd 324] | > 5 | < 0.5 | > 5 | – | – | – | –
34 | O=C1Nc2cc(/C=C/CNC(=O)c3cccn(Cc4cc(F)c(F)c(F)c4)c3=O)ccc2/C1=C/c1ncc[nH]1 [Cpd 195] | < 1 | < 0.5 | – | – | – | – | –
35 | O=C(Cc1cccc(C2CNc3ncccc32)c1)Nc1cccn(Cc2ccc(F)c(F)c2)c1=O (centres unmarked) [Cpd 44] | 1 to 5 | < 0.5 | – | – | – | – | –
36 | O=C(NC/C=C/c1ccc2[nH]c(=O)[nH]c2c1)c1cccn(Cc2ccc(F)c(F)c2)c1=O [Cpd 160] | > 5 | < 0.5 | – | – | – | – | –
37 | O=C(NCc1cc(-c2c[nH]c3ncccc23)c[n+]([O-])c1)c1cccn(Cc2ccc(F)c(F)c2)c1=O [Cpd 165] | > 5 | < 0.5 | – | – | – | – | –
38 | O=C(NCc1cccc(-c2c[nH]c3ncc(Cl)cc23)c1)c1cccn(Cc2ccc(F)c(F)c2)c1=O [Cpd 22] | 1 to 5 | < 0.5 | 1 to 5 | – | – | – | –
39 | NCc1cnc2[nH]cc(-c3cccc(CNC(=O)c4cccn(Cc5ccc(F)c(F)c5)c4=O)c3)c2c1 [Cpd 243] | < 1 | < 0.5 | 1 to 5 | – | – | – | –
40 | O=C(NCc1cccc(-c2c[nH]c3nccnc23)c1)c1cccn(Cc2ccc(F)c(F)c2)c1=O [Cpd 13] | 1 to 5 | < 0.5 | – | 25 to 75 | > 75 | – | –
41 | CN1CCC(=C2C(=O)Nc3cc(/C=C/CNC(=O)c4cccn(Cc5cc(F)c(F)c(F)c5)c4=O)ccc32)CC1 [Cpd 211] | – | < 0.5 | – | – | – | – | –
